Reference: the supplement of paper PMC4862054

What was measured:
Details in all cases: incubation time: 72 h
BT-549 [1] = assay: drug sensitivity score (DSS), CellTiter-Blue viability (DSS (AUC-based score)); higher = stronger viability inhibition; extreme values may be limits of the assay
Method: (§1)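 DSRT with the CellTiter-Blue (resazurin reduction) viability readout, fluorescence 560/590 nm, 72 h incubation. Plates were normalised to DMSO and benzethonium chloride controls. DSS is computed from the area under the fitted dose-response curve (5 or 9 concentrations).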

MDA-MB-468 = assay: as above
Method: as §1

SK-BR-3 = assay: as above
Method: as §1

CAL-148 = assay: as above
Method: as §1

MDA-MB-231 = assay: as above
Method: as §1

HCC1143 [2] = assay: as above
Method: as §1

DU-4475 [3] = assay: as above
Method: as §1

HCC1937 = assay: as above
Method: as §1

MDA-MB-453 = assay: as above
Method: as §1

Hs578T = assay: as above
Method: as §1

CAL-120 [4] = assay: as above
Method: as §1

CAL-51 = assay: as above
Method: as §1

BT-474 [5] = assay: as above
Method: as §1

MDA-MB-436 = assay: as above
Method: as §1

HCC1599 [6] = assay: as above
Method: as §1

CAL-85-1 [7] = assay: as above
Method: as §1

MFM-223 = assay: as above
Method: as §1

HDQ-P1 = assay: as above
Method: as §1

BT-549 [8] = assay: drug sensitivity score (DSS), CellTox Green (DSS (AUC-based score)); higher = stronger drug effect (viability inhibition or cytotoxicity); extreme values may be limits of the assay
Outline: (§2)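 For 72 h, breast cancer cell lines seeded at 20 µl suspension per well in 384-well plates were incubated with compound at 5 concentrations in 10-fold steps spanning a 10,000-fold range that differed by compound. The first reading was CellTox Green fluorescence at 485/520 nm, and the second was CellTiter-Glo luminescence after 10 min at room temperature. Both were normalised per plate to 0.1 % DMSO and a positive kill control, and the drug sensitivity score was obtained from the area under the fitted dose-response curve.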

MCF-10A = assay: as above
Outline: as §2

HCC1143 [9] = assay: as above
Outline: as §2

DU-4475 [10] = assay: as above
Outline: as §2

CAL-120 [11] = assay: as above
Outline: as §2

BT-474 [12] = assay: as above
Outline: as §2

HCC1599 [13] = assay: as above
Outline: as §2

CAL-85-1 [14] = assay: as above
Outline: as §2

## O=C(CCBr)N1CCN(C(=O)CCBr)CC1 [Pipobroman]
BT-549 [1]
  drug sensitivity score: 0
MDA-MB-468
  drug sensitivity score: 0
SK-BR-3
  drug sensitivity score: 0
CAL-148
  drug sensitivity score: 0
MDA-MB-231
  drug sensitivity score: 0
HCC1143 [2]
  drug sensitivity score: 0
DU-4475 [3]
  drug sensitivity score: 0
HCC1937
  drug sensitivity score: 0
MDA-MB-453
  drug sensitivity score: 2.49
Hs578T
  drug sensitivity score: 0
CAL-120 [4]
  drug sensitivity score: 0
CAL-51
  drug sensitivity score: 0
BT-474 [5]
  drug sensitivity score: 0
MDA-MB-436
  drug sensitivity score: 0
HCC1599 [6]
  drug sensitivity score: 0
CAL-85-1 [7]
  drug sensitivity score: 0
MFM-223
  drug sensitivity score: 3.19
HDQ-P1
  drug sensitivity score: 0
BT-549 [8]
  drug sensitivity score: 0
MCF-10A
  drug sensitivity score: 0
HCC1143 [9]
  drug sensitivity score: 1.77
DU-4475 [10]
  drug sensitivity score: 0
CAL-120 [11]
  drug sensitivity score: 0
BT-474 [12]
  drug sensitivity score: 0
HCC1599 [13]
  drug sensitivity score: 0
CAL-85-1 [14]
  drug sensitivity score: 0
